# Laboratory results taken from patent publication US9629885B1, “Method for treating candidiasis” (KING SAUD UNIVERSITY, priority 2016, dated 2017).
# How the values were obtained:
# C. kefyr [1] = experiment: Minimum inhibitory concentration, micro-dilution method; type: cell-based; details: malt extract broth, 37° C., 24-48 h
# Text: (§1) The fungal strain was isolated from a soil sample collected from Al-Qassim region, Kingdom of Saudi Arabia (KSA). The malt extract agar (MEA) medium (malt extract, 20 g; peptone, 1 g; dextrose, 20 g; agar, 20 g; distilled water, 1 L) was used for isolation, cultivation, identification and production of fungal secondary metabolites of the fungal isolate and test Candida species. Ten clinically isolated Candida species; namely, Candida albicans, C. dubliniensis, C. famata, C. glabrata, C. inconspicua, C. kefyr, C. krusei, C. norvegensis, C. parapsilosis, and C. tropicalis were used as test microorganisms. The fungal isolate and the test organism were identified at the Microbiology Laboratory, Regional Center for Mycology and Biotechnology, Al-Azhar University, Cairo, Egypt.
# (§2) The minimum inhibitory concentration (MIC) was determined for both total extract of Petriella setifera and the isolated compound by micro-dilution method using serially diluted (2 folds) according to Awaad et al. (2012). The MIC was determined by dilution of total extract and isolated compound of concentrations of 0.0-1000 μg/ml. Equal volume of each extract and malt extract broth were mixed in a test tube. Specifically, 0.1 ml of standardized inoculum (1-2×10^7 CFU/ml) was added in each tube. The tubes were incubated at 37° C. for 24-48 h. Two control tubes; tube containing the growth medium, saline and the inoculum, were maintained for each test batch. The lowest concentration (highest dilution) of the extract that produced no visible candidal growth (no turbidity) when compared with the control tubes were regarded as MIC.
# C. tropicalis [2] = experiment: as above; type: cell-based; details: malt extract broth, 37° C., 24-48 h
# Text: as §1, §2
# C. famata [3] = experiment: as above; type: cell-based; details: malt extract broth, 37° C., 24-48 h
# Text: as §1, §2
# C. inconspicua [4] = experiment: as above; type: cell-based; details: malt extract broth, 37° C., 24-48 h
# Text: as §1, §2
# C. parapsilosis [5] = experiment: as above; type: cell-based; details: malt extract broth, 37° C., 24-48 h
# Text: as §1, §2
# C. norvegensis [6] = experiment: as above; type: cell-based; details: malt extract broth, 37° C., 24-48 h
# Text: as §1, §2
# C. dubliniensis [7] = experiment: as above; type: cell-based; details: malt extract broth, 37° C., 24-48 h
# Text: as §1, §2
# C. krusei [8] = experiment: as above; type: cell-based; details: malt extract broth, 37° C., 24-48 h
# Text: as §1, §2
# C. glabrata [9] = experiment: as above; type: cell-based; details: malt extract broth, 37° C., 24-48 h
# Text: as §1, §2
# Candida albicans [10] = experiment: as above; type: cell-based; details: C. albicans, malt extract broth, 37° C., 24-48 h
# Text: as §1, §2
# C. kefyr [11] = experiment: Anticandidal activity, well-diffusion method; type: cell-based; details: 50 μl per 6 mm well, 100 mg/ml, 37° C., 24-48 h
# Text: as §1
# (§3) Anticandidal activities of total alcoholic extract of Petriella setifera and the isolated compound (amnomopin) were determined using well-diffusion method according to Zain et al. (2012). Petri plates containing 20 ml of malt extract agar medium were seeded with 48 h cultures of candidal inoculums (1-2×10^7 Colony Forming Units [CFU/ml]). Wells (6 mm in diameter) were cut off into agar and 50 μl of extract and the isolated compound were tested in a concentration of 100 mg/ml and incubated at 37° C. for 24-48h. The assessment of anticandidal activity was based on measurement of the diameter of the inhibition zone formed around the well.
# C. tropicalis [12] = experiment: Anticandidal activity, well-diffusion method; type: cell-based; details: 50 μl per 6 mm well, 100 mg/ml, 37° C., 24-48 h
# Text: as §1, §3
# C. famata [13] = experiment: Anticandidal activity, well-diffusion method; type: cell-based; details: 50 μl per 6 mm well, 100 mg/ml, 37° C., 24-48 h
# Text: as §1, §3
# C. inconspicua [14] = experiment: Anticandidal activity, well-diffusion method; type: cell-based; details: 50 μl per 6 mm well, 100 mg/ml, 37° C., 24-48 h
# Text: as §1, §3
# C. parapsilosis [15] = experiment: Anticandidal activity, well-diffusion method; type: cell-based; details: 50 μl per 6 mm well, 100 mg/ml, 37° C., 24-48 h
# Text: as §1, §3
# C. norvegensis [16] = experiment: Anticandidal activity, well-diffusion method; type: cell-based; details: 50 μl per 6 mm well, 100 mg/ml, 37° C., 24-48 h
# Text: as §1, §3
# C. dubliniensis [17] = experiment: Anticandidal activity, well-diffusion method; type: cell-based; details: 50 μl per 6 mm well, 100 mg/ml, 37° C., 24-48 h
# Text: as §1, §3
# C. krusei [18] = experiment: Anticandidal activity, well-diffusion method; type: cell-based; details: 50 μl per 6 mm well, 100 mg/ml, 37° C., 24-48 h
# Text: as §1, §3
# C. glabrata [19] = experiment: Anticandidal activity, well-diffusion method; type: cell-based; details: 50 μl per 6 mm well, 100 mg/ml, 37° C., 24-48 h
# Text: as §1, §3
# Candida albicans [20] = experiment: Anticandidal activity, well-diffusion method; type: cell-based; details: C. albicans, 50 μl per 6 mm well, 100 mg/ml, 37° C., 24-48 h
# Text: as §1, §3
# Male Wister rats = experiment: Sub-chronic toxicity test, liver and kidney functions; type: in vivo
# Description: Male Wister rats (weighing about 150-180 g) were divided into 3 equal groups each of 10 rats. Rats of the first group received the vehicle in a dose of 5 mL/kg and left as normal control. Rats of the second and third groups were administered the alcoholic extract of the investigated fungi (500 mg/kg) and the isolated compound (50 mg/kg). All medications were administered orally daily for 15 consecutive days. Animals were maintained under identical conditions with food and water ad libitum for the entire period with close observation. At the end of the experimental period, blood samples were collected from the orbital plexus of rats, 6 h after the last dose. Samples were left to clot at room temperature for 20 min. The obtained sera were collected and used to determine the activity of (AST) aspirate aminotransferase and (ALT) alanine aminotransferase, levels of urea and creatinine were also estimated (Awaad et al. 2014).
# The effect of the total alcohol extract of Petriella setifera and isolated compound (Amnomopin) on liver and kidney functions are provided in Table 2. Three groups of animals (n=10) were orally administered the total alcohol extracts (500 mg/kg) and the isolated compound (50 mg/kg) daily for 15 days, while the control group received water orally. After the treatment period, blood samples were collected, sera were separated and different parameters were measured as provided in Table 2. All values were expressed as mean±S.D.
# [21] = rat serum, oral daily for 15 days, mean±S.D., n=10
smiles,measurement,setting,value
"CC1(C)CCC2(C(=O)O)CCC3(C)C(CCC4C5(C)CCC(O[C@@H]6OC(CO)[C@@H](O)C(O)C6O[C@@H]6OC(CO)[C@@H](O)C(O)C6O)C(C)(C)C5=CCC43C)C2C1 (stereo partly drawn) [Amnomopin, 3β-diglucoside-5, 12-28-oic acid]",MIC,C. kefyr [1]; Kluyveromyces marxianus,0.49 µg/mL
same,Minimum Inhibitory Concentration (MIC),C. kefyr [1],00.98 µg/mL
same,MIC,C. tropicalis [2]; Candida tropicalis,7.81 µg/mL
same,MIC,C. famata [3]; Debaryomyces hansenii,3.9 µg/mL
same,MIC,C. inconspicua [4]; Pichia inconspicua,32.2 µg/mL
same,MIC,C. parapsilosis [5]; Lodderomyces parapsilosis,32.2 µg/mL
same,MIC,C. norvegensis [6]; Pichia norvegensis,0.98 µg/mL
same,Minimum Inhibitory Concentration (MIC),C. norvegensis [6],01.95 µg/mL
same,MIC,C. dubliniensis [7]; Candida dubliniensis,62.5 µg/mL
same,MIC,C. krusei [8]; Pichia kudriavzevii,1.95 µg/mL
same,MIC,C. glabrata [9]; Nakaseomyces glabratus,62.5 µg/mL
same,Minimum Inhibitory Concentration (MIC),Candida albicans [10],01.95 µg/mL
same,Minimum Inhibitory Concentration (MIC),Candida albicans [10]; listed as amnomopin,00.49 µg/mL
same,Diameter of inhibition zone,C. kefyr [11],24.2 ± 2.10 mm
same,zone of inhibition at 100000 µg/mL,"C. kefyr [11]; Kluyveromyces marxianus, read-out: Diameter of inhibition zone",24.2 ± 2.1 mm
same,zone of inhibition at 100000 µg/mL,"C. tropicalis [12]; Candida tropicalis, read-out: Diameter of inhibition zone",19.4 ± 1.2 mm
same,zone of inhibition at 100000 µg/mL,"C. famata [13]; Debaryomyces hansenii, read-out: Diameter of inhibition zone",20.1 ± 1.5 mm
same,zone of inhibition at 100000 µg/mL,"C. inconspicua [14]; Pichia inconspicua, read-out: Diameter of inhibition zone",18.3 ± 2.1 mm
same,zone of inhibition at 100000 µg/mL,"C. parapsilosis [15]; Lodderomyces parapsilosis, read-out: Diameter of inhibition zone",18.4 ± 0.72 mm
same,Diameter of inhibition zone,C. norvegensis [16],22.1 ± 1.20 mm
same,zone of inhibition at 100000 µg/mL,"C. norvegensis [16]; Pichia norvegensis, read-out: Diameter of inhibition zone",22.1 ± 1.2 mm
same,zone of inhibition at 100000 µg/mL,"C. dubliniensis [17]; Candida dubliniensis, read-out: Diameter of inhibition zone",16.2 ± 0.63 mm
same,zone of inhibition at 100000 µg/mL,"C. krusei [18]; Pichia kudriavzevii, read-out: Diameter of inhibition zone",20.9 ± 0.58 mm
same,zone of inhibition at 100000 µg/mL,"C. glabrata [19]; Nakaseomyces glabratus, read-out: Diameter of inhibition zone",16.3 ± 0.63 mm
same,Diameter of inhibition zone,Candida albicans [20],23.1 ± 2.10 mm
same,zone of inhibition at 100000 µg/mL,"Candida albicans [20]; Candida albicans, read-out: Diameter of inhibition zone",23.1 ± 2.1 mm
same,Kidney function Blood urea,Male Wister rats; [21],30.85 ± 1.83 mg/dL
same,Kidney function Serum Creatinine,Male Wister rats; [21],0.38 ± 0.02 mg/dL
same,Liver function ALT,Male Wister rats; [21],146.30 ± 4.30 U/l
same,Liver function AST,Male Wister rats; [21],66.72 ± 2.82 U/l
same,"effect on the activity of ALT, AST and the levels of blood urea and serum creatinine","Male Wister rats; rats, oral dosing for 15 days, extract 500 mg/kg, compound 50 mg/kg",did not show any significant effect
"C[C@@H]1[C@H](O)[C@@H](C)/C=C/C=C/C=C/C=C/C=C/C=C/C=C/[C@H](O[C@@H]2O[C@H](C)[C@@H](O)[C@H](N)[C@@H]2O)C[C@@H]2O[C@](O)(C[C@@H](O)C[C@@H](O)[C@H](O)CC[C@@H](O)C[C@@H](O)CC(=O)O[C@H]1C)C[C@H](O)[C@H]2C(=O)O [Amphotericin B, reference compound]",Minimum Inhibitory Concentration (MIC),C. kefyr [1],00.49 µg/mL
same,Minimum Inhibitory Concentration (MIC),C. tropicalis [2],03.90 µg/mL
same,Minimum Inhibitory Concentration (MIC),C. famata [3],03.90 µg/mL
same,Minimum Inhibitory Concentration (MIC),C. inconspicua [4],00.98 µg/mL
same,Minimum Inhibitory Concentration (MIC),C. parapsilosis [5],00.49 µg/mL
same,Minimum Inhibitory Concentration (MIC),C. norvegensis [6],00.49 µg/mL
same,Minimum Inhibitory Concentration (MIC),C. dubliniensis [7],00.49 µg/mL
same,Minimum Inhibitory Concentration (MIC),C. krusei [8],00.98 µg/mL
same,Minimum Inhibitory Concentration (MIC),C. glabrata [9],03.90 µg/mL
same,Minimum Inhibitory Concentration (MIC),Candida albicans [10],00.49 µg/mL
same,Diameter of inhibition zone,C. kefyr [11],26.3 ± 1.20 mm
same,Diameter of inhibition zone,C. kefyr [11]; listed as amphotericin B,26.3±1.20 mm
same,Diameter of inhibition zone,C. tropicalis [12],19.6 ± 1.50 mm
same,Diameter of inhibition zone,C. famata [13],20.4 ± 0.63 mm
same,Diameter of inhibition zone,C. inconspicua [14],21.9 ± 1.20 mm
same,Diameter of inhibition zone,C. parapsilosis [15],32.4 ± 0.58 mm
same,Diameter of inhibition zone,C. norvegensis [16],28.7 ± 0.72 mm
same,Diameter of inhibition zone,C. dubliniensis [17],24.1 ± 1.20 mm
same,Diameter of inhibition zone,C. krusei [18],23.7 ± 0.63 mm
same,Diameter of inhibition zone,C. glabrata [19],19.3 ± 2.10 mm
same,Diameter of inhibition zone,Candida albicans [20],26.3 ± 1.20 mm
